Measurements from EPA's ToxValDB 9.5.
Where a name gives a salt, the structure may show the parent alone.

Test system: Rattus norvegicus
Settings: oral
[1] = short-term, duration: 28 days, gavage, F, Sprague-Dawley, Deaths + Clinical Observation: Locomotor activity decrease, Abnormal respiratory sound Deep respiration Pale skin Hypothermia Ptosis …
[2] = short-term, duration: 28 days, gavage, M, Sprague-Dawley, Deaths + Clinical Observation: Locomotor activity decrease, Abnormal respiratory sound Deep respiration Pale skin Hypothermia Ptosis …
[3] = short-term, duration: 28 days, gavage, F, Sprague-Dawley, Clinical Observation: Salivation + Hematology: Hgb decrease, Hct decrease + Blood Chemistry: Bil increase, Bil increase(trend)gamma-GTP …
[4] = short-term, duration: 28 days, gavage, M, Sprague-Dawley, Clinical Observation: Salivation + Hematology: Hgb decrease, Hct decrease + Blood Chemistry: Bil increase, Bil increase(trend)gamma-GTP …

With `CC(C)(C)c1cc(C(=O)O)c(O)c(C(C)(C)C)c1` [Benzoic acid, 3,5-bis(1,1-dimethylethyl)-2-hydroxy-] the NOEL (subchronic, gavage, M, Sprague-Dawley, Blood Chemistry: ALT(GPT) increase, TG increase + Absolute Organ Weight: Liver increase + Relative Organ Weight: Liver increase) was 20 mg/kg-day.

`CN(C)c1cccc(C(=O)O)c1` [Benzoic acid, 3-(dimethylamino)-] showed an NOEL (subchronic, gavage, M, Sprague-Dawley, Clinical Observation: Salivation + Blood Chemistry: Bil increase, Cl decrease + Relative Organ Weight: Heart increase) of 200 mg/kg-day.

For `O=C(O)CCCN1CCC(O[C@@H](c2ccc(Cl)cc2)c2ccccn2)CC1.O=S(=O)(O)c1ccccc1` [Bepotastine besylate], the NOAEL (short-term, duration: 28 days, gavage, M/F, CD, Clinical Observation: Mydriasis Salivation Soiled perineal region + Body Weight Changes: decrease + Food Consumption: decrease + Urinalysis…) was 100 mg/kg-day.

In the case of `CCCCCOC(=O)c1c(Cl)c(Cl)cc(Cl)c1OC(=O)C(=O)Oc1c(Cl)cc(Cl)c(Cl)c1C(=O)OCCCCC` [Bis(2,4,5-trichloro-6-carbopentoxyphenyl) oxalate], the NOEL (short-term, duration: 28 days, gavage, M/F, Deaths + Clinical Observation: Salivation + Hematology: PT increase, APTT increase + Blood Chemistry: TP increase, ALB increase, TG …) is reported as < 8 mg/kg-day.

`ClCBr` [Bromochloromethane] showed an NOEL (subchronic, duration: 42 days, gavage, M, CD(SD), Absolute Organ Weight: Liver increase + Relative Organ Weight: Liver increase + Necropsy: Stomach-Dark red focus, glandular stomach + …) of 30 mg/kg-day.

Work on `O=[N+]([O-])C(Br)(CO)CO` [Bronopol] yielded an LOEL [1] of 30 mg/kg-day, an NOEL [1] of 10 mg/kg-day and an LOEL [2] of 90 mg/kg-day. It also gave an NOEL [2] of 30 mg/kg-day.

For `CCC(Cl)C(Cl)C(Cl)CC(Cl)C(Cl)C(C)Cl` (stereo unspecified) [C10-12 chloroalkanes], the NOEL (subchronic, duration: 13 weeks, gavage, M/F, Fischer 344, Clinical Observation: Inactive + Body Weight Changes: decrease + Relative Organ Weight: Liver increase + Histopathology: Liver-Hypertrophy, …) was < 313 mg/kg-day.

For `O=[N+]([O-])c1ccc(Nc2ccc(Nc3ccccc3)c(S(=O)(=O)[O-])c2)c([N+](=O)[O-])c1.[Na+]` [C.I. Acid Orange 3], the NOEL (subchronic, duration: 13 weeks, gavage, M/F, Fischer 344, Deaths + Body Weight Changes: decrease + Histopathology: Kidney-Nephrosis Kidney-Suppurative inflammation Kidney/Renal papilla - Necrosis …) was 750 mg/kg-day.

Work on `Cc1[nH]n(-c2ccccc2)c(=O)c1N=Nc1ccc(-c2ccc(N=Nc3c(C)[nH]n(-c4ccccc4)c3=O)c(Cl)c2)cc1Cl` [C.I. Pigment Orange 13] yielded an NOEL (subchronic, gavage, Sprague-Dawley) of 1000 mg/kg-day.

With `COc1ccc([N+](=O)[O-])cc1N=Nc1c(O)c(C(=O)Nc2cccc([N+](=O)[O-])c2)cc2ccccc12` [C.I. Pigment Red 23] the NOEL (subchronic, duration: 13 weeks, diet, M/F, Fischer 344, Hematology: Hct decrease, Hgb decrease, RBC decrease + Blood Chemistry: LDH increase + Absolute Organ Weight: Liver + Relative Organ Weight…) was < 288 mg/kg-day.

For `CCCC(C)(COC(N)=O)COC(=O)NC(C)C` (stereo unspecified) [Carisoprodol], the NOEL (subchronic, gavage, M/F, Fischer 344, Deaths + Clinical Observation: Lethargy Ataxia + Absolute Organ Weight: Right kidney increase, Liver increase + Relative Organ Weight: Right…) was < 100 mg/kg-day and the NOEL (subchronic, gavage, M/F, Fischer 344, Deaths + Clinical Observation: Lethargy Diarrhea Rough hair coat Prostration Urine stain in the vaginal area Ataxia + Body Weight Changes: …) was < 100 mg/kg-day.

With `COc1ccccc1OCCNCC(O)COc1cccc2[nH]c3ccccc3c12` (stereo unspecified) [Carvedilol] the NOEL (chronic, duration: 91 days, gavage, M/F, Wistar, Deaths + Clinical Observation: Salivation Lacrimation Ptosis Locomotor activity decrease + Body Weight Changes: Body weight gain decrease + …) was 30 mg/kg-day.

With `Oc1ccc(Cl)cc1Cc1ccccc1` [Clorophene] the NOEL (subchronic, duration: 13 weeks, gavage, M/F, Fischer 344, Deaths + Clinical Observation: Red-yellow staining of urogenital region hair coat Alopecia of head Brown discoloration of hair coat around …) was < 30 mg/kg-day.

`C=CCOC(=O)c1ccccc1C(=O)OCC=C` [Diallyl phthalate] was tested, and the NOEL (subchronic, duration: 13 weeks, gavage, M/F, Fischer 344, Deaths + Histopathology: Liver/periportal-Hepatocellular alteration Liver/periportal-Necrosis Liver/periportal-Fibrosis Liver/bile duct- …) was 25 mg/kg-day.

For `CCCCCCC[CH2][Sn]([Cl])([Cl])[CH2]CCCCCCC` [Dichloro(dioctyl)stannane], the NOAEL (subchronic, duration: 90 days, diet, M/F, Wistar, Body Weight Changes: Weight gain decrease + Food Consumption: decrease + Urinalysis: Crystals increase + Hematology: RBC decrease, HGB …) was > 0.96 mg/kg-day.

Compound `O[Si](O)(C1CCCC1)C1CCCC1` [Dicyclopentylsilanediol] has an NOEL (subchronic, duration: 90 days, gavage, M, Sprague-Dawley, Clinical Observation: Ataxic gait SalivationDecreased locomotor activity + Blood Chemistry: TG decrease + Relative Organ Weight: Liver …) of 40 mg/kg-day.

With `c1cc(OCC2CO2)cc(OCC2CO2)c1` (stereo unspecified) [Diglycidyl resorcinol ether] the NOEL (subchronic, duration: 13 weeks, gavage, M/F, Fischer 344, Deaths + Body Weight Changes: decrease + Histopathology: Stomach/forestomach-Inflammation Stomach/forestomach-Basal cell hyperplasia Stomach…) was < 12.5 mg/kg-day.

In the case of `COC(=O)CCCC(=O)OC` [Dimethyl glutarate], the NOAEL (subchronic, duration: 42 days, gavage, M, CD(SD), Urinalysis: pH decrease(trend) + Histopathology: Stomach-Hyperplasia, squamous, limiting ledge) is reported as 300 mg/kg-day.

`CCCCCCCCCCCCCCCCCCCCCC[N+](C)(C)C.[Cl-]` [Docosyltrimethylammonium chloride] was tested, and the NOEL (subchronic, gavage, M, Sprague-Dawley, Clinical Observation: Salivation Perinasal and perioral smudge Soft stool and diarrhea + Body Weight Changes: decrease, R + Food …) was < 5 mg/kg-day.

Work on `COC(CCl)OC` [Ethane, 2-chloro-1,1-dimethoxy-] yielded an NOEL (short-term, duration: 28 days, gavage, M/F, Blood Chemistry: GPT increase, ALP increase, T-Bil increase, IP decrease + Organ Weight: Liver increase, Spleen decrease, Kidney increase, …) of 15 mg/kg-day.

For `CC[Si](Cl)(Cl)Cl` [Ethyl silicon trichloride], the NOAEL (short-term, duration: 28 days, gavage, M/F, Wistar, Clinical Observation: Staggering gait + Body Weight Changes: decrease + Relative Organ Weight: Liver increase, (Low and middle doses were …) was 250 mg/kg-day.

In the case of `CCC1CCCCC1` [Ethylcyclohexane], the LOEL [3] is reported as 200 mg/kg-day, the NOEL [3] is reported as 40 mg/kg-day and the LOEL [4] is reported as 200 mg/kg-day. It also gave an NOEL [4] of 40 mg/kg-day.

For `C(COCC1CO1)OCC1CO1` (stereo unspecified) [Ethylene glycol diglycidyl ether], the NOEL (subchronic, duration: 42 days, gavage, M, CD(SD), Clinical Observation: Salivation + Body Weight Changes: decrease + Food Consumption: decrease + Blood Chemistry: TG decrease + …) was 12.5 mg/kg-day.

For `CC(C)OC(=O)C(C)(C)Oc1ccc(C(=O)c2ccc(Cl)cc2)cc1` [Fenofibrate], the NOAEL (chronic, duration: 91 days, gavage, M/F, CD, Body Weight Changes: decrease + Food Consumption: decrease + Urinalysis: WBCEpithelial cell + Hematology: RBC decrease, HCT decrease, HGB …) was 5 mg/kg-day.
